US11987559B1, “1-(4-bromobenzylideneamino)-5-phenylimidazolidine-2,4-dione as an antimicrobial compound” (KING FAISAL UNIVERSITY, priority 2023, dated 2024)

Tests used:
Type in all cases: cell-based
Bacillus cereus = assay: agar plate disc-diffusion, antibacterial inhibition zone; conditions: nutrient agar, 37° C., 48 hours
Experimental: (§1) The agar plate disc-diffusion method was applied. […] The discs were then placed onto the surface of agar plates (nutrient agar for bacteria and Sabouraud's dextrose agar for fungi) seeded with the test organism. Each plate contained 15 mL of the agar medium, previously seeded with 0.2 mL of the broth culture of each organism pregrown for 18 hours. The plates were incubated at 37° C. for 48 hours, and 72 hours for fungi. The inhibition zones were measured in millimeters (mm). Discs impregnated with DMSO were used as a control, and its inhibition zone was subtracted from the tested compound's actual inhibition zone.

Escherichia coli = assay: as above; conditions: nutrient agar, 37° C., 48 hours
Experimental: as §1

Pseudomonas aeruginosa = assay: as above; conditions: nutrient agar, 37° C., 48 hours
Experimental: as §1

Staphylococcus aureus = assay: as above; conditions: nutrient agar, 37° C., 48 hours
Experimental: as §1

Aspergillus flavus = assay: agar plate disc-diffusion, antifungal inhibition zone; conditions: Sabouraud's dextrose agar, 72 hours
Experimental: as §1

[1] = tested on: Chrysosporium keratinophilum; assay: as above; conditions: Sabouraud's dextrose agar, 72 hours
Experimental: as §1

different microbes = assay: antimicrobial testing, overall statement; conditions: result in words; bacteria and fungi of tables 1, 2
Experimental: The agar plate disc-diffusion method was applied. Sterilized filter papers (6 mm in diameter) were wetted with 10 μL of a solution of 1-(4-bromobenzylideneamino)-5-phenylimidazolidine-2,4-dione (4) to be tested, containing 10 mg/mL in DMSO, and the discs were allowed to air dry. The discs were then placed onto the surface of agar plates (nutrient agar for bacteria and Sabouraud's dextrose agar for fungi) seeded with the test organism. Each plate contained 15 mL of the agar medium, previously seeded with 0.2 mL of the broth culture of each organism pregrown for 18 hours. The plates were incubated at 37° C. for 48 hours, and 72 hours for fungi. The inhibition zones were measured in millimeters (mm). Discs impregnated with DMSO were used as a control, and its inhibition zone was subtracted from the tested compound's actual inhibition zone.

[2] = A = concentration of comp. = 10,000 μL
[3] = B = concentration of comp. = 30.000 μL
[4] = C = concentration of comp. = 50,000 μL

Row | Compound | inhibition zone (Bacillus cereus; [2]) [mm] | inhibition zone (Bacillus cereus; [3]) [mm] | inhibition zone (Bacillus cereus; [4]) [mm] | inhibition zone (Escherichia coli; [2]) [mm] | inhibition zone (Escherichia coli; [3]) [mm] | inhibition zone (Escherichia coli; [4]) [mm] | inhibition zone (Pseudomonas aeruginosa; [2]) [mm] | inhibition zone (Pseudomonas aeruginosa; [3]) [mm] | inhibition zone (Pseudomonas aeruginosa; [4]) [mm] | inhibition zone (Staphylococcus aureus; [2]) [mm] | inhibition zone (Staphylococcus aureus; [3]) [mm] | inhibition zone (Staphylococcus aureus; [4]) [mm] | inhibition zone (Aspergillus flavus; [2]) [mm] | inhibition zone (Aspergillus flavus; [3]) [mm] | inhibition zone (Aspergillus flavus; [4]) [mm] | inhibition zone [1, 2] [mm] | inhibition zone [1, 3] [mm] | inhibition zone [1, 4] [mm] | antimicrobials activities against different microbes (different microbes)
1 | O=C(O)c1cn(C2CC2)c2cc(N3CCNCC3)c(F)cc2c1=O [Cip., reference compound] | 29 | 30 | 42 | 30 | 39 | 60 | 29 | 30 | 53 | 43 | 44 | 53 | 29 | 30 | 42 | 29 | 30 | 53 | –
2 | O=C1NC(=O)N(/N=C/c2ccc(Br)cc2)C1c1ccccc1 (stereo not shown) [Compound 4, 1-(4-bromobenzylideneamino)-5-phenylimidazolidine-2,4-dione] | 27 | 29 | 28 | 24 | 30 | 48 | 23 | 27 | 34 | 15 | 23 | 26 | 19 | 24 | 35 | 26 | 29 | 45 | excellent
